How the values were obtained:
[1] = Absorbance at photostationary state (PSS) under simulated sunlight or 365 nm light; format: physicochemical; parameters: λ max: unit not given here; conditions: for Absorbance at PSS, 365 nm: 365 nm light source; for Absorbance at PSS, 365 nm / Absorbance at PSS, full / Absorbance at PSS, +UV / λ max: 2.0×10^−5 M in triglyme; for sensitivity index: ratio of PSS under 365 nm light to PSS under full spectrum light (without UV blocking film); for Absorbance at PSS, full: simulated sunlight (QSUN solar simulator), no UV blocking film; for Absorbance at PSS, +UV: simulated sunlight with UV blocking film (cutoff 370 nm); for λ max: wavelength of maximum absorbance in the visible range, ring-closed isoform
How it was run: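 Compounds at 2.0×10^−5 M in triglyme, photofaded with visible light, then irradiated with simulated sunlight (xenon arc) or 365 nm light until the UV/Vis spectrum stabilized. Also irradiated through a UV-blocking film (370 nm cutoff); sensitivity index is PSS under 365 nm divided by PSS under full spectrum.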

[2] = Solubility in indicated solvent; format: physicochemical; conditions: % wt soluble in triglyme
From the text: A compound with greater solubility allows for a formulation or material with a greater concentration of coloured molecule to be incorporated into a composition. This may allow for increasing the contrast ratio for a compound with a lesser absorbance at PSS. Inclusion of a solubilizing group in a compound according to various embodiments of the invention may increase solubility. Examples of solubilizing groups may include alkoxy or siloxy groups.

Row | SMILES | Absorbance at PSS, 365 nm [1] | sensitivity index [1] | Absorbance at PSS, full [1] | Absorbance at PSS, +UV [1] | λ max [1] | Solubility [2]
1 | CC(C)(C)c1ccc(-c2cc(C3=C(c4cc(-c5ccc(C(C)(C)C)s5)sc4-c4ccc(C(C)(C)C)s4)C(F)(F)C(F)(F)C3(F)F)c(-c3ccc(C(C)(C)C)s3)s2)s1 [S003, 3′,3″″-(perfluorocyclopent-1-ene-1,2-diyl)bis(5,5″-di-tert-butyl-2,2′:5′,2″-terthiophene)] | 0.372 | 1.40 | 0.2655 | 0.2055 | 650 | <3 % wt
2 | FC1(F)C(c2cc(-c3ccccc3)sc2-c2ccccc2)=C(c2cc(-c3ccc(Cl)cc3)sc2-c2ccccc2)C(F)(F)C1(F)F [S006, 5-(4-chlorophenyl)-3-(2-(2,5-diphenylthiophen-3-yl)-3,3,4,4,5,5-hexafluorocyclopent-1-en-1-yl)-2-phenylthiophene] | 0.141 | 3.71 | 0.038 | 0.013 | 610 | 3 % wt
3 | Cc1cc(-c2cc(C3=C(c4cc(-c5cc(C)c(C)s5)sc4-c4cc(C)c(C)s4)C(F)(F)C(F)(F)C3(F)F)c(-c3cc(C)c(C)s3)s2)sc1C [S011] | 0.363 | 1.81 | 0.201 | 0.142 | 655 | 3 % wt
4 | Cc1c(-c2ccccc2)sc(-c2ccccc2)c1C1=C(c2c(-c3ccccc3)sc(-c3ccccc3)c2C)C(F)(F)C(F)(F)C1(F)F [S017, 4,4′-(perfluorocyclopent-1-ene-1,2-diyl)bis(3-methyl-2,5-diphenylthiophene)] | 0.049 | 5.44 | 0.009 | 0.0025 | 605 | 1 % wt
5 | COc1ccc(-c2cc(C3=C(c4cc(-c5ccc(OC)s5)sc4-c4ccc(OC)s4)C(F)(F)C(F)(F)C3(F)F)c(-c3ccc(OC)s3)s2)s1 [S020, 3′,3″″-(perfluorocyclopent-1-ene-1,2-diyl)bis(5,5″-dimethoxy-2,2′:5′,2″-terthiophene)] | 0.244 | 2.12 | 0.115 | 0.085 | 665 | 3 % wt
6 | c1ccc(-c2nc(-c3nc(-c4ccccc4)sc3-c3nc(-c4ccccc4)sc3-c3ccccc3)c(-c3ccccc3)s2)cc1 [S032, 2,2′,2″,5,5″-pentaphenyl-4,4′:5′,4″-terthiazole] | 0.594 | 18.56 | 0.032 | 0.008 | 600 | 1 % wt
7 | Cc1cc(-c2sc(C)c(C)c2C2=C(c3c(-c4cc(C)c(C)s4)sc(C)c3C)C(F)(F)C(F)(F)C2(F)F)sc1C [S039, 3,3′-(perfluorocyclopent-1-ene-1,2-diyl)bis(4,4′,5,5′-tetramethyl-2,2′-bithiophene)] | 0.372 | 7.75 | 0.048 | 0.028 | 570 | 2 % wt
8 | FC(F)(F)c1ccc(-c2cc(C3=C(c4cc(-c5ccc(C(F)(F)F)cc5)sc4-c4ccc(C(F)(F)F)cc4)C(F)(F)C(F)(F)C3(F)F)c(-c3ccc(C(F)(F)F)cc3)s2)cc1 [S044, 3,3′-(perfluorocyclopent-1-ene-1,2-diyl)bis(2,5-bis(4-(trifluoromethyl)phenyl)thiophene)] | 0.222 | 3.58 | 0.062 | 0.027 | 605 | 1 % wt
9 | CC(C)(C)c1ccc(-c2cc(C3=C(c4cc(-c5ccc(C(C)(C)C)cc5)sc4-c4cccs4)C(F)(F)C(F)(F)C3(F)F)c(-c3cccs3)s2)cc1 [S049, 3,3″-(perfluorocyclopent-1-ene-1,2-diyl)bis(5-(4-(tert-butyl)phenyl)-2,2′-bithiophene)] | 0.217 | 2.49 | 0.087 | 0.044 | 625 | 2 % wt
10 | CC(C)(C)c1ccc(-c2sc(-c3cccs3)cc2C2=C(c3cc(-c4cccs4)sc3-c3ccc(C(C)(C)C)cc3)C(F)(F)C(F)(F)C2(F)F)cc1 [S052, 4,4″-(perfluorocyclopent-1-ene-1,2-diyl)bis(5-(4-(tert-butyl)phenyl)-2,2′-bithiophene)] | 0.318 | 1.54 | 0.206 | 0.116 | 630 | 1 % wt
11 | COc1ccc(-c2cc(C3=C(c4cc(-c5ccc(OC)cc5)sc4-c4ccc(OC)cc4)C(F)(F)C(F)(F)C3(F)F)c(-c3ccc(OC)cc3)s2)cc1 [S054, 3,3′-(perfluorocyclopent-1-ene-1,2-diyl)bis(2,5-bis(4-methoxyphenyl)thiophene)] | 0.268 | 2.53 | 0.106 | 0.056 | 630 | 5-6 % wt
12 | COc1ccc2c(C3=C(c4c(-c5ccc(OC)c(OC)c5)oc5cc(OC)ccc45)C(F)(F)C(F)(F)C3(F)F)c(-c3ccc(OC)c(OC)c3)oc2c1 [S155, 3,3′-(perfluorocyclopent-1-ene-1,2-diyl)bis(2-(3,4-dimethoxyphenyl)-6-methoxybenzofuran)] | 0.329 | 4.06 | 0.081 | 0.045 | 516 | –
13 | CCOCCOCCOCCOc1ccc2c(C3=C(c4c(-c5ccc(C(C)(C)C)cc5)oc5cc(OCCOCCOCCOCC)ccc45)C(F)(F)C(F)(F)C3(F)F)c(-c3ccc(C(C)(C)C)cc3)oc2c1 [S161, 3,3′-(perfluorocyclopent-1-ene-1,2-diyl)bis(2-(4-(tert-butyl)phenyl)-6-(2-(2-(2-ethoxyethoxy)ethoxy)ethoxy)benzofuran)] | 0.455 | 3.73 | 0.122 | 0.06 | 511 | –
14 | CC(C)(C)c1ccc(-c2oc3cc(O)ccc3c2C2=C(c3c(-c4ccc(C(C)(C)C)cc4)oc4cc(O)ccc34)C(F)(F)C(F)(F)C2(F)F)cc1 [S162, 3,3′-(perfluorocyclopent-1-ene-1,2-diyl)bis(2-(4-(tert-butyl)phenyl)benzofuran-6-ol)] | 0.398 | 3.34 | 0.119 | 0.06 | 520 | –
15 | CC(C)(C)c1ccc(-c2oc3cc4c(cc3c2C2=C(c3c(-c5ccc(C(C)(C)C)cc5)oc5cc6c(cc35)OCO6)C(F)(F)C(F)(F)C2(F)F)OCO4)cc1 [S163, 7,7′-(perfluorocyclopent-1-ene-1,2-diyl)bis(6-(4-(tert-butyl)phenyl)-[1,3]dioxolo[4,5-f]benzofuran)] | 0.533 | 2.12 | 0.252 | 0.116 | 588 | –
16 | COc1cc2oc(-c3ccc(C(C)(C)C)cc3)c(C3=C(c4c(-c5ccc(C(C)(C)C)cc5)oc5cc(OC)c(OC)cc45)C(F)(F)C(F)(F)C3(F)F)c2cc1OC [S164, 3,3′-(perfluorocyclopent-1-ene-1,2-diyl)bis(2-(4-(tert-butyl)phenyl)-5,6-dimethoxybenzofuran)] | 0.546 | 2.32 | 0.235 | 0.134 | 554 | –
17 | CC(C)(C)c1ccc(-c2cc(C3=C(c4cc(-c5ccc(C(C)(C)C)s5)sc4-c4cccs4)C(F)(F)C(F)(F)C3(F)F)c(-c3cccs3)s2)s1 [S170, 4,4′-(perfluorocyclopent-1-ene-1,2-diyl)bis(5′-tert-butyl-5-(thiopheyl)-2,2′-bithiophene)] | – | – | 0.287 | 0.182 | 645 | –

From patent US10072023B2, “Diarylethene compounds and uses thereof” (SWITCH MATERIALS, INC., priority 2011, dated 2018)
